This note sets out measurements from patent US20100272736A1, “COMBINATION ANTIBIOTIC AND ANTIBODY THERAPY FOR THE TREATMENT OF PSEUDOMONAS AERUGINOSA INFECTION” (priority 2009, published 2010).

Assay [1] concerns P. aeruginosa PA103. Briefly: Acute murine airway infection model: survival and body temperature (Mab166 iv, antibiotic ip). In kind it is in vivo, mice. As to conditions: for survival rate over a 7 day period: antibiotic alone ip Q8H (ciprofloxacin 100 mg/kg, tobramycin 3.3 mg/kg, ceftazidime 1000 mg/kg); for survival (piperacillin experiment): piperacillin/tazobactam 1000 mg/kg ip Q8H, Mab166 300 μg iv, FIG. 7. Here is the method: Bacterial administration and lung injury measurement in mice. Following anesthesia with avertin (250 mg kg^−1; ip), mice were inoculated with a volume of fifty μl of bacterial working stock (1.5×10^6 CFU), which was instilled into the left lung through the trachea using a 27G gavages needle. Mice were allowed to recover for 15 minutes prior to being returned to their cages. […] Rectal temperature was recorded hourly for the initial 12 hours post bacterial instillation followed by daily measurements for 7 days. Survival time was recorded for each mouse.
Antibiotics and PcrV antibody administration. […] All antibiotics were administrated intraperitoneally 1 hour after P. aeruginosa instillation. Four doses of each antibiotic were tested in mice to determine the dose needed to produce sub-optimal survival rates (40-60%) in mice infected with 1.5×10^6 PA103 CFU, which is a 3× lethal amount of bacteria.
Statistics. Kaplan-Meier plots were generated for survival analysis and ANOVA was used to compare lung injury score, bacterial CFU's and MPO activity in various treatment groups at specific time points; P 0.05 was considered significant.
(§1) The acutely infectious strain P. aeruginosa PA103 was used for this study.
Anti-PcrV antibody was intravenously injected one hour before P. aeruginosa instillation. Mice were then anesthetized with avertin (250 mg/kg), prior to instillation of 1.5×10^6 CFU PA103 into the trachea. Intraperitoneal piperacillin (1000 mg/kg, Q8H) injection commenced one hour after P. aeruginosa instillation and repeated until mice expired. Piperacillin was administered in combination with tazobactam (a pencillinase inhibitor), which is the standard practice for administration. In this example, “piperacillin” refers to piperacillin in combination with tazobactam.

Assay [2] has as its system PA103. Briefly: PA103 antibiotic sensitivity (MicroScan Neg Combo plates, CLSI guidelines). The assay is classed as cell-based, P. aeruginosa. As to conditions: conventional antibiotic resistance testing, CLSI interpretation.
Description: PA103 antibiotic sensitivity Dade Behring MicroScan Neg Combo plates were used to determine the antibiotic sensitivity of PA103 by conventional antibiotic sensitivity testing according to the manufacturers instructions.
as §1

The subject of assay [3] is P. aeruginosa PA103. Briefly: Bacterial enumeration (CFU) in lungs, blood and spleen. The assay is classed as in vivo, mice. Here is the method:
Bacterial enumeration. Lungs were removed aseptically from the thoracic cavity, placed in 1 ml of sterile PBS and homogenized. Spleens were aseptically removed and homogenized in 1 ml of PBS and blood was drawn from right ventricle puncture. All samples were serially diluted in sterile PBS and plated on P. aeruginosa isolation agar prior to overnight incubation at 37° C. Plates with cell counts between 30 and 300 were enumerated and mean CFU ml^−1 of triplicate counts was calculated for each sample.
These samples were analyzed for bacterial CFU's as described in materials and methods.

For `NC[C@H]1O[C@H](O[C@H]2[C@H](O)[C@@H](O[C@H]3O[C@H](CO)[C@@H](O)[C@H](N)[C@H]3O)[C@H](N)C[C@@H]2N)[C@H](N)C[C@@H]1O` [tobramycin], in assay [1], the “survival rate over a 7 day period” value came to 60%. Also, the “antibiotic susceptibility of PA103” value in assay [2] is reported as “susceptible”. Besides, the “P. aeruginosa CFU's in the blood” value in assay [3] (8 and 24 hours post infection) is listed as “significant (P=0.01, P=0.0046 respectively) increases”. The “total CFU's in the lungs” value in assay [3] (8 and 24 hours post infection, compared to control mice) is listed as “significantly lower”. Also, in assay [3] (24 hours vs 8 hours post infection), the “bacterial CFU's in the spleen” value is recorded as “increased significantly”.
As to `CC(C)(O/N=C(\C(=O)N[C@@H]1C(=O)N2C(C(=O)[O-])=C(C[n+]3ccccc3)CS[C@H]12)c1csc(N)n1)C(=O)O` [ceftazidime], in assay [1], the “survival rate over a 7 day period” value stood at 40%. For the same molecule, the “antibiotic susceptibility of PA103” value in assay [2] was “susceptible”.
Consider `CCN1CCN(C(=O)N[C@@H](C(=O)N[C@@H]2C(=O)N3[C@@H]2SC(C)(C)[C@@H]3C(=O)O)c2ccccc2)C(=O)C1=O` [piperacillin], for which the results for the “survival (piperacillin experiment)” value in assay [1] and in assay [1] (listed as Piperacillin) were “increased survival minimally” and “slight increase in animal survival”, respectively.
